Patent publication US20260206761A1, “HETEROARYL-TRIAZOLE COMPOUNDS AS PESTICIDES” (Bayer Aktiengesellschaft, priority 2019, published 2026)

Experiments:
Type in all cases: in vivo
[1] = system: larvae of the banded cucumber beetle (Diabrotica balteata); assay: Diabrotica balteata spray test; details: 168 h, after 7 days, read-out: activity (efficacy: seedlings grown); for pest or weed control at 100 g/ha: application rate 100 g/ha (=32 pg/well); for pest or weed control at 500 g/ha: application rate 500 g/ha (=160 pg/well)
In short: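 Wheat seedlings, germinated 1 day on agar (5 seeds/well), sprayed with active compound in acetone/DMF diluted in water containing 1000 ppm emulsifier, then infested with 10-20 D. balteata larvae. Efficacy (%) scored after 7 days: 100% = seedlings grown as untreated uninfested control, 0% = no seedlings grown.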

[2] = system: Aedes aegypti strain MONHEIM; assay: Aedes aegypti test (AEDSAE surface treatment & contact assay); details: 24 hours after contact, read-out: efficacy (mortality); for mortality at 4 mg/m2: surface concentration 4 mg/m^2, exposure 30 minutes; for mortality at 20 mg/m2: surface concentration 20 mg/m^2, exposure 30 minutes
In short: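 Compound in acetone (2 mg/ml) with 2000 ppm RME pipetted onto glazed tile and dried; adult Aedes aegypti MONHEIM exposed 30 min. Percent mortality scored 24 h after contact.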

[3] = system: fall armyworm larvae (Spodoptera frugiperda); assay: Spodoptera frugiperda spray test; details: 168 h, read-out: activity (mortality)
In short: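 Compound in acetone/DMF, diluted in water with 1000 ppm alkylarylpolyglycol ether emulsifier, sprayed on maize leaf sections. Dried leaves infested with fall armyworm larvae; % mortality after 7 days (100% = all killed, 0% = none).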

[4] = system: adult unfed cat fleas (Ctenocephalides felis); assay: Ctenocephalides felis oral test; details: 48 h, read-out: activity (mortality)
In short: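 About 20 adult unfed fleas fed through parafilm on cattle blood containing compound (DMSO stock diluted in blood), blood held at 37 °C and fleas at room temperature. Mortality (%) scored after 2 days.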

[5] = system: adult cat fleas (Ctenocephalides felis); assay: Ctenocephalides felis in-vitro contact test, adult cat flea; details: application rate 5 μg/cm^2 (=500 g/ha), after 48 hours, read-out: activity (efficacy: fleas dead or moribund)
In short: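 Acetone solutions of compound coated onto inner walls of glass tubes (900 ppm giving […]); after drying, 5-10 adult Ctenocephalides felis added and held at room temperature. At 48 h, fleas placed on a 45-50° C heating plate; those unable to climb away scored dead or moribund, expressed as % efficacy.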

[6] = system: larvae of the southern green stink bug (Nezara viridula); assay: Nezara viridula spray test; details: 96 h, after 4 days; for mortality at 100 g/ha: application rate 100 g/ha; for mortality at 500 g/ha: application rate 500 g/ha
In short: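 Compound in acetone/dimethylformamide, diluted in water with 1000 ppm alkylarylpolyglycol ether emulsifier, sprayed onto barley plants carrying stink bug larvae. Mortality (%) scored after 4 days, 100% meaning all insects killed.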

[7] = system: Rhipicephalus microplus larvae (strain Parkhurst, resistant against synthetic pyrethroids); assay: Rhipicephalus (Boophilus) microplus in-vitro contact test, larval cattle tick; details: after 48 hours, read-out: activity (efficacy: larvae dead or moribund); for pest or weed control at 100 g/ha: application rate 1 pg/cm^2 (=100 g/ha); for pest or weed control at 500 g/ha: application rate 5 pg/cm^2 (=500 g/ha)
In short: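 Acetone solutions coated onto inner walls of glass tubes by rotation (900 ppm giving 5 μg/cm^2); after evaporation, 20-50 larvae added per tube and held at 27° C., 85% relative humidity. Efficacy read after 48 h from negative geotactic behaviour; 100% = all larvae dead or moribund.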

[8] = system: green peach aphid (Myzus persicae); assay: Myzus persicae spray test; details: 120 h, after 5 days; for mortality at 500 g/ha: application rate 500 g/ha
In short: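 Chinese cabbage leaf disks carrying all instars of M. persicae sprayed with compound in acetone/DMF, diluted in water with 1000 ppm alkylarylpolyglycol ether emulsifier. Percent mortality scored after 5 days (100% = all aphids killed).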

SMILES | pest or weed control at 100 g/ha [1] [%] | pest or weed control at 500 g/ha [1] [%] | mortality at 4 mg/m2 [2] [%] | mortality at 20 mg/m2 [2] [%] | mortality at 100 g/ha [3] [%] | mortality at 500 g/ha [3] [%] | mortality at 100 ppm [4] [%] | pest or weed control at 5 µg/cm2 [5] [%] | mortality at 100 g/ha [6] [%] | mortality at 500 g/ha [6] [%] | pest or weed control at 100 g/ha [7] [%] | pest or weed control at 500 g/ha [7] [%] | mortality at 100 g/ha ([8]; application rate 100 g/ha) [%] | mortality at 500 g/ha [8] [%]
C[C@H](NC(=O)c1cc(Cl)cc([S+]([O-])C(F)F)c1)c1ncnn1-c1ccc(C#N)cn1 (stereo partly drawn) [II-18, 3-chloro-N-{(1S)-1-[1-(5-cyanopyridin-2-yl)-1H-1,2,4-triazol-5-yl]ethyl}-5-[(difluoro-methyl)sulfinyl]benzamide] | 100 | 100 | 80 to 100 | 80 to 100 | 100 | 100 | 100 | 100 | 100 | 100 | 100 | 100 |  | 
C[C@H](NC(=O)c1cc(C2CC2)cc(C(F)(F)F)c1)c1ncnn1-c1ccc(Cl)cn1 [II-27] | 100 | 100 | 80 to 100 | 80 to 100 | 100 | 100 | 100 | 100 | 100 | 100 | 100 | 100 |  | 
C[C@H](NC(=O)c1cc(C(F)(F)F)cc(S(C)(=O)=O)c1)c1ncnn1-c1ncccn1 [II-13] | 100 | 100 | 80 to 100 | 80 to 100 |  | 100 |  | 100 | 100 | 100 |  | 80 | 90 | 100
Cc1nc([C@H](C)NC(=O)c2cc(C(F)(F)F)n(C)n2)n(-c2ncccn2)n1 [II-25] |  | 100 | 80 to 100 | 80 to 100 |  |  |  | 100 | 100 | 100 | 100 | 100 |  | 90
C[C@H](NC(=O)c1cc(Cl)cc(S(C)(=O)=O)c1)c1nc(C2CC2)nn1-c1ccc(C#N)cn1 [I-4] | 100 | 100 | 80 to 100 | 80 to 100 | 100 | 100 | 100 | 90 | 100 | 100 | 90 |  |  | 
Cc1nc([C@H](C)NC(=O)c2cc(Cl)nn2C)n(-c2ccc(C#N)cn2)n1 [II-11] | 100 | 100 | 80 to 100 | 80 to 100 |  | 100 | 100 | 100 |  |  | 100 | 100 |  | 
C[C@H](NC(=O)c1cc(Cl)cc(S(=O)(=O)C(F)(F)F)c1)c1ncnn1-c1ncc(OC(F)F)cn1 [II-43] | 100 |  | 80 to 100 | 80 to 100 | 100 |  | 100 | 100 | 100 |  | 100 | 100 |  | 
C[C@H](NC(=O)c1cc(C(F)(F)F)cc(S(=O)(=O)C2CC2)c1)c1ncnn1-c1ccc(C#N)cn1 [II-32] | 100 | 100 | 80 to 100 | 80 to 100 | 100 | 100 | 100 |  | 100 | 100 | 100 | 100 |  | 90
Cc1nc([C@H](C)NC(=O)c2cc(OC(F)(F)F)cc(C3CC3)c2)n(-c2ccc(C#N)cn2)n1 [II-39] | 100 |  | 80 to 100 | 80 to 100 | 100 |  | 100 | 100 |  |  | 100 | 100 |  | 
Cc1nc([C@H](C)NC(=O)c2cc(C(F)(F)F)n(C)n2)n(-c2ccc(C#N)cn2)n1 [II-7] | 100 | 100 | 80 to 100 | 80 to 100 | 100 | 100 | 100 | 100 |  | 90 |  | 100 |  | 
C[C@H](NC(=O)c1cc(Cl)cc(S(=O)(=O)C(F)F)c1)c1ncnn1-c1ccc(C#N)cn1 [II-17] | 100 | 100 | 80 to 100 | 80 to 100 | 83 | 100 | 100 | 100 |  | 100 | 100 | 100 |  | 
C[C@H](NC(=O)c1cc(C(F)(F)F)cc(S(C)(=O)=O)c1)c1ncnn1-c1ccc(Cl)cn1 [II-16] | 100 | 100 | 80 to 100 | 80 to 100 | 100 | 100 | 100 | 100 | 100 | 100 | 100 | 100 |  | 
